Legend:
[1] = compound: CC(=O)c1c(C)c2cnc(Nc3ccc(N4CCNCC4)cn3)nc2n(C2CCCC2)c1=O; assay: increase in dead-cell fraction, 72 h; higher = more death;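 also: breast cancer cell lines in 384-well plates, stained with Hoechst plus LIVE/DEAD far red dye and imaged, cells above an LDR intensity threshold counted dead, Hoechst-negative corpses included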
[2] = compound: CCN1CCN(Cc2ccc(Nc3ncc(F)c(-c4cc(F)c5nc(C)n(C(C)C)c5c4)n3)nc2)CC1; assay: as above
LEE011/Ribociclib [3] = compound: T1, CN(C)C(=O)c1cc2cnc(Nc3ccc(N4CCNCC4)cn3)nc2n1C1CCCC1 [LEE011/Ribociclib]; assay: as above
Flavopiridol [4] = compound: T2, CN1CC[C@H](c2c(O)cc(O)c3c(=O)cc(-c4ccccc4Cl)oc23)[C@H](O)C1 [Flavopiridol]; assay: as above
BSJ-03-123 = compound: CC(=O)c1c(C)c2cnc(Nc3ccc(N4CCN(CCOCCOCCOCCNC(=O)COc5cccc6c5C(=O)N(C5CCC(=O)NC5=O)C6=O)CC4)cn3)nc2n(C2CCCC2)c1=O [BSJ-03-123]; assay: GR value, 72 h; higher = faster growth (1 = untreated, <0 = killing);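 also: breast cancer and non-malignant breast epithelial lines, nine half-log doses, viable cells counted by Hoechst and LIVE/DEAD dye imaging versus time-zero plates and DMSO controls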
[5] = compound: CC(=O)c1c(C)c2cnc(Nc3ccc(N4CCNCC4)cn3)nc2n(C2CCCC2)c1=O; assay: as above
[6] = compound: CCN1CCN(Cc2ccc(Nc3ncc(F)c(-c4cc(F)c5nc(C)n(C(C)C)c5c4)n3)nc2)CC1; assay: as above
Neratinib/HKI272 = compound: CCOc1cc2ncc(C#N)c(Nc3ccc(OCc4ccccn4)c(Cl)c3)c2cc1NC(=O)/C=C/CN(C)C [Neratinib/HKI272]; assay: as above
[7] = compound: CCc1cnn2c(NCc3ccc[n+]([O-])c3)cc(N3CCCC[C@H]3CCO)nc12; assay: as above
LEE011/Ribociclib [8] = compound: T1, LEE011/Ribociclib; assay: as above
THZ1 = compound: CN(C)C/C=C/C(=O)Nc1ccc(C(=O)Nc2cccc(Nc3ncc(Cl)c(-c4c[nH]c5ccccc45)n3)c2)cc1 [THZ1]; assay: as above
Flavopiridol [9] = compound: T2, Flavopiridol; assay: as above

## BT549
[1]; 0.0003162 µM
  increase in dead-cell fraction: 0.003
[1]; 0.001 µM
  increase in dead-cell fraction: 0.0092
[1]; 0.003162 µM
  increase in dead-cell fraction: 0.0021
[1]; 0.01 µM
  increase in dead-cell fraction: 0.0028
[1]; 0.03162 µM
  increase in dead-cell fraction: -0.0008
[1]; 0.1 µM
  increase in dead-cell fraction: 0.0025
[1]; 0.3162 µM
  increase in dead-cell fraction: -0.0015
[1]; 1 µM
  increase in dead-cell fraction: -0.0066
[1]; 3.162 µM
  increase in dead-cell fraction: -0.0162
[2]; 0.001 µM
  increase in dead-cell fraction: -0.0017
[2]; 0.003162 µM
  increase in dead-cell fraction: -0.0033
[2]; 0.01 µM
  increase in dead-cell fraction: 0.0079
[2]; 0.03162 µM
  increase in dead-cell fraction: -0.0016
[2]; 0.1 µM
  increase in dead-cell fraction: 0.0009
[2]; 0.3162 µM
  increase in dead-cell fraction: -0.01
[2]; 1 µM
  increase in dead-cell fraction: 0.0019
[2]; 3.162 µM
  increase in dead-cell fraction: 0.024
[2]; 10 µM
  increase in dead-cell fraction: 0.139
LEE011/Ribociclib [3]; 0.001 µM
  increase in dead-cell fraction: 0.0033
LEE011/Ribociclib [3]; 0.003162 µM
  increase in dead-cell fraction: -0.0034
LEE011/Ribociclib [3]; 0.01 µM
  increase in dead-cell fraction: -0.0015
LEE011/Ribociclib [3]; 0.03162 µM
  increase in dead-cell fraction: -0.0014
LEE011/Ribociclib [3]; 0.1 µM
  increase in dead-cell fraction: -0.0023
LEE011/Ribociclib [3]; 0.3162 µM
  increase in dead-cell fraction: -0.0023
LEE011/Ribociclib [3]; 1 µM
  increase in dead-cell fraction: -0.0003
LEE011/Ribociclib [3]; 3.162 µM
  increase in dead-cell fraction: 0.0011
LEE011/Ribociclib [3]; 10 µM
  increase in dead-cell fraction: -0.0008
Flavopiridol [4]; 0.0001 µM
  increase in dead-cell fraction: 0.0048
Flavopiridol [4]; 0.0003162 µM
  increase in dead-cell fraction: -0.0007
Flavopiridol [4]; 0.001 µM
  increase in dead-cell fraction: -0.0015
Flavopiridol [4]; 0.003162 µM
  increase in dead-cell fraction: 0.0036
Flavopiridol [4]; 0.01 µM
  increase in dead-cell fraction: -0.0014
Flavopiridol [4]; 0.03162 µM
  increase in dead-cell fraction: 0.0045
Flavopiridol [4]; 0.1 µM
  increase in dead-cell fraction: 0.0204
Flavopiridol [4]; 0.3162 µM
  increase in dead-cell fraction: 0.164
Flavopiridol [4]; 1 µM
  increase in dead-cell fraction: 0.514
BSJ-03-123; 0.001 µM
  GR value: 0.998 GR
BSJ-03-123; 0.003162 µM
  GR value: 0.999 GR
BSJ-03-123; 0.01 µM
  GR value: 1 GR
BSJ-03-123; 0.03162 µM
  GR value: 0.988 GR
BSJ-03-123; 0.1 µM
  GR value: 0.998 GR
BSJ-03-123; 0.3162 µM
  GR value: 0.976 GR
BSJ-03-123; 1 µM
  GR value: 0.938 GR
BSJ-03-123; 3.162 µM
  GR value: 0.88 GR
BSJ-03-123; 10 µM
  GR value: 0.0237 GR
[5]; 0.0003162 µM
  GR value: 1.02 GR
[5]; 0.001 µM
  GR value: 1.04 GR
[5]; 0.003162 µM
  GR value: 1.03 GR
[5]; 0.01 µM
  GR value: 1.06 GR
[5]; 0.03162 µM
  GR value: 1.06 GR
[5]; 0.1 µM
  GR value: 1.04 GR
[5]; 0.3162 µM
  GR value: 1.03 GR
[5]; 1 µM
  GR value: 1.08 GR
[5]; 3.162 µM
  GR value: 1.07 GR
[6]; 0.001 µM
  GR value: 0.992 GR
[6]; 0.003162 µM
  GR value: 1.03 GR
[6]; 0.01 µM
  GR value: 0.997 GR
[6]; 0.03162 µM
  GR value: 1.02 GR
[6]; 0.1 µM
  GR value: 0.952 GR
[6]; 0.3162 µM
  GR value: 0.963 GR
[6]; 1 µM
  GR value: 0.895 GR
[6]; 3.162 µM
  GR value: 0.588 GR
[6]; 10 µM
  GR value: 0.0335 GR
Neratinib/HKI272; 0.0003162 µM
  GR value: 1.02 GR
Neratinib/HKI272; 0.001 µM
  GR value: 1.03 GR
Neratinib/HKI272; 0.003162 µM
  GR value: 1 GR
Neratinib/HKI272; 0.01 µM
  GR value: 1.04 GR
Neratinib/HKI272; 0.03162 µM
  GR value: 1.02 GR
Neratinib/HKI272; 0.1 µM
  GR value: 0.969 GR
Neratinib/HKI272; 0.3162 µM
  GR value: 0.904 GR
Neratinib/HKI272; 1 µM
  GR value: 0.793 GR
Neratinib/HKI272; 3.162 µM
  GR value: 0.196 GR
[7]; 0.0001 µM
  GR value: 0.971 GR
[7]; 0.0003162 µM
  GR value: 1.02 GR
[7]; 0.001 µM
  GR value: 1 GR
[7]; 0.003162 µM
  GR value: 0.996 GR
[7]; 0.01 µM
  GR value: 0.698 GR
[7]; 0.03162 µM
  GR value: -0.221 GR
[7]; 0.1 µM
  GR value: -0.261 GR
[7]; 0.3162 µM
  GR value: -0.275 GR
[7]; 1 µM
  GR value: -0.293 GR
LEE011/Ribociclib [8]; 0.001 µM
  GR value: 0.972 GR
LEE011/Ribociclib [8]; 0.003162 µM
  GR value: 1.06 GR
LEE011/Ribociclib [8]; 0.01 µM
  GR value: 0.919 GR
LEE011/Ribociclib [8]; 0.03162 µM
  GR value: 0.997 GR
LEE011/Ribociclib [8]; 0.1 µM
  GR value: 1 GR
LEE011/Ribociclib [8]; 0.3162 µM
  GR value: 0.995 GR
LEE011/Ribociclib [8]; 1 µM
  GR value: 1 GR
LEE011/Ribociclib [8]; 3.162 µM
  GR value: 0.966 GR
LEE011/Ribociclib [8]; 10 µM
  GR value: 0.992 GR
THZ1; 0.0001 µM
  GR value: 1.06 GR
THZ1; 0.0003162 µM
  GR value: 1.01 GR
THZ1; 0.001 µM
  GR value: 1.02 GR
THZ1; 0.003162 µM
  GR value: 0.979 GR
THZ1; 0.01 µM
  GR value: 0.909 GR
THZ1; 0.03162 µM
  GR value: 0.69 GR
THZ1; 0.1 µM
  GR value: 0.16 GR
THZ1; 0.3162 µM
  GR value: -0.171 GR
THZ1; 1 µM
  GR value: -0.317 GR
Flavopiridol [9]; 0.0001 µM
  GR value: 1.03 GR
Flavopiridol [9]; 0.0003162 µM
  GR value: 0.982 GR
Flavopiridol [9]; 0.001 µM
  GR value: 1.01 GR
Flavopiridol [9]; 0.003162 µM
  GR value: 0.958 GR
Flavopiridol [9]; 0.01 µM
  GR value: 1.02 GR
Flavopiridol [9]; 0.03162 µM
  GR value: 0.894 GR
Flavopiridol [9]; 0.1 µM
  GR value: 0.695 GR
Flavopiridol [9]; 0.3162 µM
  GR value: 0.11 GR
Flavopiridol [9]; 1 µM
  GR value: -0.455 GR

— the supplement of paper PMC9663587
